# Laboratory results reported in patent US4320127A, “Pyrido[3,2-e]-as-triazines” (Edyt Gyogyszervegyeszeti Gyar, priority 1979, dated 1982).
# Counter-ions that a name gives are not always drawn. Like-named read-outs stand apart in the source and are kept apart here.
# Tests used:
# [1] = test system: carrageenin oedema of the hind paw; test: antiphlogistic (oedema-inhibiting) effect, carrageenin paw oedema; assay type: in vivo, rats; settings: for ED30: Rattus norvegicus; for Therapeutical index: carrageenin oedema
# Experimental: The antiphlogistic (oedema-inhibiting) effect was tested on rats. 0.1 ml of a 1% carrageenin solution were injected into the plantar region of one of the hind paws. The volume of the paw was measured just before and 3 hours after the introduction of oedema-provoking agent by a mercury plethysmometer.
# reserpine = reserpine antagonism (Brodie et al.); assay type: in vivo; settings: mice; for ED50: Mus musculus, oral administration; for Therapeutic index: reserpine antagonism, oral
# tetrabenazine = tetrabenazine antagonism (Brodie et al.); assay type: in vivo; settings: mice; for ED50: Mus musculus, oral administration; for Therapeutic index: tetrabenazine antagonism, oral
# hexobarbital-narcosis = test: effect on the duration of hexobarbital-narcosis (Kaergaard); settings: for ED50: Mus musculus, po; for Therapeutical index: hexobarbital-narcosis, mice, oral
# Text: The effect of the compounds exerted on the duration of hexobarbital-narcosis was orally tested on mice by the method of Kaergaard (Arch. Int. Pharmacodyn. 2 170 (1967)).
# motility of mice = test: effect on the motility of mice in a Dews apparatus (Borsy et al.); settings: for ED50: Mus musculus, po; for Therapeutical index: motility, mice, oral
# Text: The effect of the compounds on the motility of mice was orally tested in a Dews apparatus, by the method of Borsy et al. (Arch. Int. Pharmacodyn. 124 1-2 (1960). The ED50 values and the therapeutical indices are listed in Table 2.
# in vivo = settings: mouse
# Experimental: The toxicity of the new compounds according to the invention was determined on mice after oral administration.
# acetic acid writhing = test: analgesic effect, acetic acid writhing test; assay type: in vivo; settings: mice, oral; for ED50: Mus musculus, analgesic
# Experimental: The analgesic effect of the new compounds was determined on mice at oral administration by the acetic acid writhing test.
# [2] = dosage inhibiting the inflammation by 30%, rats, 0.1 ml of 1% carrageenin, 3 hours, read-out: ED30
Compound,ED30 ([1]; 3 h),ED50 (reserpine),Therapeutic index (reserpine),ED50 (tetrabenazine),Therapeutic index (tetrabenazine),"ED30 [1, 2]",Therapeutical index ([1]; rats),ED50 (hexobarbital-narcosis),Therapeutical index (hexobarbital-narcosis),ED50 (motility of mice),Therapeutical index (motility of mice),"LD50 (in vivo; mice, oral administration)",ED50 (acetic acid writhing),Therapeutical index (acetic acid writhing),LD50 (in vivo; po)
"CC(=O)Oc1ccccc1C(=O)O [Acetylsalicylic acid, reference compound]",180 mg/kg,,,,,,,,,,,,,,
"CN(C)CCC=C1c2ccccc2CCc2ccccc21 [Amitriptyline, reference compound]",,65 mg/kg,3.46,12 mg/kg,18.75,,,,,,,,,,
"CCCCCCC1=Nc2cccnc2N(C(=O)CC)N1.Cl [Example 1, 3-n-hexyl-1-propionyl-1,2-dihydropyrido[3,2-e]-as-triazine hydrochloride]",,300 mg/kg,5,300 mg/kg,5,200 mg/kg,7.5,~400 mg/kg,about 5,~200 mg/kg,7.5,1500 mg/kg,,,
"CCC(=O)N1NC(c2ccc(OC)cc2)=Nc2cccnc21 [Example 5, 3-anisyl-1-propionyl-1,2-dihydropyrido[3,2-e]-as-triazine hydrochloride]",,170 mg/kg,4.4,80 mg/kg,9.4,75 mg/kg,10,~170 mg/kg,4.4,~170 mg/kg,4.4,750 mg/kg,52 mg/kg,14.4,
"CCC(=O)N1NC(c2cc(OC)c(OC)c(OC)c2)=Nc2cccnc21.Cl [Example 6, 3-(3',4',5'-trimethoxyphenyl)-1-propionyl-1,2-dihydropyrido[3,2-e]-as-triazine hydrochloride]",,,,,,~155 mg/kg,12.9,~350 mg/kg,5.7,~400 mg/kg,about 5,2000 mg/kg,215 mg/kg,9.3,
"CCC(=O)N1NC(CCc2ccccc2)=Nc2cccnc21 [Example 7, 3-phenetyl-1-propionyl-1,2-dihydropyrido-[3,2-e]-as-triazine]",,,,,,,,> 400 mg/kg,below 5,> 400 mg/kg,under 5,2000 mg/kg,> 400 mg/kg,below 5,
"CCCCCCC1=Nc2cccnc2N(C(=O)c2cccnc2)N1 [Example 11, 3-n-hexyl-1-nicotinoyl-1,2-dihydropyrido-[3,2-e]-as-triazinedihydrochloride]",,,,,,,,140 mg/kg,14.3,~200 mg/kg,about 10,,~400 mg/kg,5,2000 mg/kg
"CCCCC1C(=O)N2C(c3ccccc3)=Nc3cccnc3N2C1=O (stereo not shown) [Example 13, 2-butyl-4-phenylpyrazolo[1,2-a]pyrido[3,2-e]-as-triazine-1,3-dione]",,,,,,> 400 mg/kg,below 5,,,,,,> 400 mg/kg,below 5,2000 mg/kg
"CCCCCCC1=Nc2cccnc2N(C(=O)c2ccccc2)N1.Cl [Example 18, 3-hexyl-1-benzoyl-1,2-dihydropyrido[3,2-e]-as-triazine hydrochloride]",,30 mg/kg,12.7,10 mg/kg,38,~70 mg/kg,5.4,80 mg/kg,5,,,380 mg/kg,~38 mg/kg,10,
"CCCC(C)(COC(N)=O)COC(N)=O [Meprobamate, reference compound]",,,,,,,,260 mg/kg,4.2,270 mg/kg,4.1,,,,
"CC(=O)Nc1ccc(O)cc1 [Paracetamol, reference compound]",,,,,,,,,,,,,180 mg/kg,,
